From US5945125A, “Controlled release tablet” (Temple University, priority 1996, dated 1999)
In brackets after ≈: the same amount, converted by molar mass. Entries after “also recorded” stand apart in the source; their conditions may differ. Where a name gives a salt, the structure may show the parent alone. Read-outs that look alike come from different tables or passages of the source.

What was measured:
[1] = In vitro release of drugs from tablets (USP basket procedure, water, 100 rpm, 37° C.); assay type: physicochemical; settings: for constancy of release: PEO tablets of MW 0.9×10^6, 2×10^6, 4×10^6 (FIGS. 9-14); for effect of drug loading on release: PEO tablets, different drug loadings
Protocol: A set of tablet punches with flat surfaces were used to prepare tablets of various diameters, including 7 mm, 8.1 mm, 9.5 mm, and 11 mm. They were charged with the formulation, and the compression of 2000 to 4000 pounds was exerted by turning over the machine by hand.
In vitro release of drugs from the different formulation tablets was carried out by using the USP basket procedure in distilled/deionized water at a stirring rate of 100 rpm and 37° C., if not otherwise stated. Theophylline and diltiazem HCl were chosen as model drugs. The release of theophylline and diltiazem HCl was assayed by a HP.backslash.8252A (Hewlett Packard Corporation) diode-array spectrophotometer at 244 nm and 266 nm, respectively. The release kinetic data (up to 60% release) were treated by equation (1) above.
According to the criteria for release kinetics from a swellable matrix (cylindrical shape), zero-order and anomalous transport kinetics are represented by 0.89 <n<1.0 and 0.45<n<0.89, respectively. A linear regression analysis (Microsoft Excel 5.0) of the logarithmic form of equation (1) was carried out with R^2 ≥0.99.
(§1) A set of tablet punches with flat surfaces were used to prepare the tablets having diameters of 11.1 mm and weights of 550 mg except for the sulfathiazole tablets which were 9.5 mm in diameter and weighed 400 mg. All the tablets were compressed to 4000 pounds.
as §1, with “Similarly, FIGS. 10, 12 and 14 show particular drugs used for testing with their typical solubilities. A” for “A”, “The” for “All the”
A set of tablet punches with flat surfaces were used to prepare the tablets having diameters of 11.1 mm and weights of 550 mg except for the sulfathiazole tablets, which were 9.5 mm in diameter and weighed 400 mg. All the tablets were compressed to 4000 pounds per square inch.

[2] = cited from earlier work
[3] = PEO MW 4×10^6, 20% drug loading
[4] = PEO MW 4×10^6, 39% drug loading

O=C(O)Cc1ccccc1Nc1c(Cl)cccc1Cl [diclofenac sodium]
n (release kinetics exponent) ([1]; PEO MW 0.9×10^6, 20% drug loading (FIG. 31)): 0.93 | effect of lactose on release kinetics ([1]; PEO MW 4×10^6, 39% drug vs 20% drug and 19% lactose, same total weight (FIG. 6)): superimposable (except for the final stage of release); also recorded: superimposable (except in the final stage of release) | constancy of release [1]: least constant release; also recorded: constant or near constant release kinetics | effect of drug loading on release [1]: did not significantly change

COc1ccc([C@@H]2Sc3ccccc3N(CCN(C)C)C(=O)[C@@H]2OC(C)=O)cc1 [diltiazem HCl, diltiazem hydrochloride]
solubility ([2]; in water): > 50%

O=C(O)c1ccccc1O [salicylic acid]
release at which profiles from 20% and 39% loaded tablets cross ([1]; PEO MW 2×10^6 (FIG. 31)): about 50% | release kinetics exponent n [1, 3]: 0.72 | release kinetics exponent n [1, 4]: 0.81 | constancy of release [1]: Constant release rates over the longest period of time

Nc1ccc(S(=O)(=O)Nc2ncccn2)cc1 [sulfadiazine]
constancy of release [1]: most constant release over the longest period of time

Nc1ccc(S(=O)(=O)Nc2ccccn2)cc1 [sulfapyridine]
period of release ([1]; PEO MW 4×10^6 (FIG. 14)): relatively short | release kinetics exponent n ([1]; PEO MW 4×10^6 (FIG. 14)): 1.10 | effect of 39% versus 20% drug loading on release profile ([1]; PEO tablets (FIG. 31)): shifted to the left of the release profiles from 20% loaded tablets

Nc1ccc(S(=O)(=O)Nc2nccs2)cc1 [sulfathiazole]
solubility [2]: 590 mg/L (≈ 2310 µM) | release at which profiles from 20% and 39% loaded tablets cross ([1]; PEO MW 4×10^6 (FIG. 31)): about 50% | release kinetics exponent n [1, 3]: 0.78 | release kinetics exponent n [1, 4]: 0.94 | shape of release profile ([1]; PEO tablets (FIGS. 10, 12, 14)): slightly sigmoidal profile | constancy of release [1]: Constant release rates over the longest period of time

Cn1c(=O)c2[nH]cnc2n(C)c1=O [theophylline]
solubility ([2]; in water): < 1.0% | release exponent (n) ([1]; PEO MW 0.9×10^6 tablet (FIG. 2)): 0.99 (±0.024) | release exponent (n) ([1]; PEO MW 2×10^6 tablet (FIG. 2)): 0.80 (±0.004) | release exponent (n) ([1]; PEO MW 4×10^6 tablet (FIG. 2)): 0.83 (±0.019) | effect of pH of dissolution medium on release ([1]; PEO tablets (FIG. 3)): not significantly influenced by the pH variation | constancy of release [1]: least constant release; also recorded: constant or near constant release kinetics | effect of drug loading on release [1]: superimposed
